What was measured:
[1] = system: huPPARα; test: Cotransfection assay in CV-1 cells, huPPARα (GAL4 chimeric system); assay type: cell-based, human; details: luciferase reporter, relative to PPARα agonist reference molecule
Protocol: (§1) DNA-dependent binding (ABCD binding) was carried out using SPA technology with PPAR receptors. Tritium-labeled PPARγ and PPARα agonists were used as radioligands for generating displacement curves and IC50 values with compounds of the invention. Cotransfection assays were carried out in CV-1 cells. The reporter plasmid contained an acylCoA oxidase (AOX) PPRE and TK promoter upstream of the luciferase reporter cDNA. Appropriate PPARs and RXRα were constitutively expressed using plasmids containing the CMV promoter. For PPARα and PPARβ, interference by endogenous PPARγ in CV-1 cells was an issue. In order to eliminate such interference, a GAL4 chimeric system was used in which the DNA binding domain of the transfected PPAR was replaced by that of GAL4, and the GAL4 response element was utilized in place of the AOX PPRE. Cotransfection efficacy was determined relative to PPARα agonist and PPARβ agonist reference molecules. Efficacies were determined by computer fit to a concentration-response curve, or in some cases at a single high concentration of agonist (10 μM). For binding or cotransfection studies with receptors other than PPARs, similar assays were carried out using appropriate ligands, receptors, reporter constructs, etc., for that particular receptor.
(§2) These studies were carried out to evaluate the ability of compounds of the invention to bind to and/or activate various nuclear transcription factors, particularly huPPARα (“hu” indicates “human”) and huPPARγ. These studies provide in vitro data concerning efficacy and selectivity of compounds of the invention. Furthermore, binding and cotransfection data for compounds of the invention were compared with corresponding data for marketed compounds that act on either huPPARα or huPPARγ.

[2] = biological target: T1, huPPARγ (Homo sapiens, UniProt P37231); test: DNA-dependent binding (ABCD binding), SPA, huPPARγ; details: displacement of tritium-labeled PPARγ agonist radioligand
T1 sequence (P37231 1-505): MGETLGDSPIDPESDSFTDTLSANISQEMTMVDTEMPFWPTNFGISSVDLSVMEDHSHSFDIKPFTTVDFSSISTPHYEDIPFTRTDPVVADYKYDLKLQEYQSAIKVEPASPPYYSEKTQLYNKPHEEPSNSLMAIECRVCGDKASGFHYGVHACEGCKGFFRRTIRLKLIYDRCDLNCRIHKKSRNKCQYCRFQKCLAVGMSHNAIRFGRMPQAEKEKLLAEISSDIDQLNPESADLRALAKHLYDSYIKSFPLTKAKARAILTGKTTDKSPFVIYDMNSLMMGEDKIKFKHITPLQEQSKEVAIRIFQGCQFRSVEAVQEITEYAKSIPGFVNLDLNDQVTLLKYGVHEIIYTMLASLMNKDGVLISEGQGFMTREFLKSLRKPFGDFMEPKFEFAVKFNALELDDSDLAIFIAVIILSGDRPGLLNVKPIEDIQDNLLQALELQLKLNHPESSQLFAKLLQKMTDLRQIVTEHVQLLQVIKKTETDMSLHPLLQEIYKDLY
T1 sequence (P19793 1-462 partner): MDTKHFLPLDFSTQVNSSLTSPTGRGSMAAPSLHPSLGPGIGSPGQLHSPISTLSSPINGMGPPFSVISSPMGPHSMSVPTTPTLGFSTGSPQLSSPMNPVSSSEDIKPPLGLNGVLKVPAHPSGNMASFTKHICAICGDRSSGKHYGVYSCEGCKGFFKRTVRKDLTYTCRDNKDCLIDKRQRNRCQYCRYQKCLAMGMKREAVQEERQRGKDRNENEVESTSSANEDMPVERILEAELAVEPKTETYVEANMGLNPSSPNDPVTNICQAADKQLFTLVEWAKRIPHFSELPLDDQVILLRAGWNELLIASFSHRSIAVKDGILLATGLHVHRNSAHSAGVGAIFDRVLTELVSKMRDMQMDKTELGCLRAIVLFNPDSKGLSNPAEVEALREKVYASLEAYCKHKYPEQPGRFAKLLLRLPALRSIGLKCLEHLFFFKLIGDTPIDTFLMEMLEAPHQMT
Protocol: as §1, with “For PPARα and PPARβ, interference by endogenous PPARγ in CV-1 cells was an issue.” left out
as §2

[3] = biological target: T1, huPPARγ; test: Cotransfection assay in CV-1 cells, huPPARγ; assay type: cell-based; set-up: expressed in transfected cells; host or cells: CV-1 cells; details: AOX PPRE luciferase reporter, relative to agonist reference molecule; for Emax: read-out: huPPARγ CTF Efficacy
Protocol: as §1, with “Tritium-labeled PPARγ and PPARα agonists were used as radioligands for generating displacement curves and IC50 values with compounds of the invention.” left out, “For PPARα and PPARβ, interference by endogenous PPARγ in CV-1 cells was an issue.” left out, “Cotransfection efficacy was determined relative to PPARα agonist and PPARβ agonist reference molecules.” left out
as §2

[4] = biological target: T2, huPPARα (Homo sapiens, UniProt Q07869); test: DNA-dependent binding (ABCD binding), SPA, huPPARα; details: displacement of tritium-labeled PPARα agonist radioligand
T2 sequence (Q07869 1-468): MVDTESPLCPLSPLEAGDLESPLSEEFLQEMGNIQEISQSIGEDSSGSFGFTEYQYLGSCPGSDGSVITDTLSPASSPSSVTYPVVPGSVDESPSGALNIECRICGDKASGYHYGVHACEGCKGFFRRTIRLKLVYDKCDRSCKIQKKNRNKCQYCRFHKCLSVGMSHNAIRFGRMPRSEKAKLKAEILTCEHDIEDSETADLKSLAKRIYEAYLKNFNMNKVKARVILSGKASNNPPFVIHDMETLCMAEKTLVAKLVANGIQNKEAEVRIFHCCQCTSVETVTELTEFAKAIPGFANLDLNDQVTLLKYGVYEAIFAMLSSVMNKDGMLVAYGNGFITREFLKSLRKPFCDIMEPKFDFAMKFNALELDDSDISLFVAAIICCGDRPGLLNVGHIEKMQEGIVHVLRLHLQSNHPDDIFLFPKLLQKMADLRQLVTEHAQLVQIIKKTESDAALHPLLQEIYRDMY
T2 sequence (P19793 1-462 partner): T1 sequence (P19793 1-462 partner)
Protocol: as §1, with “For PPARα and PPARβ, interference by endogenous PPARγ in CV-1 cells was an issue.” left out
as §2

SMILES | huPPARα CTF Efficacy [1] | IC50 [2] | Emax [3] | IC50 [4] | huPPARγ CTF Efficacy [3]
COc1ccccc1-c1ccc(-c2nc(CCOc3ccc(OC(C)(C)C(=O)O)cc3)c(C)o2)cc1 [Example 10, 2-(4-{2-[2-(2′-Methoxy-biphenyl-4-yl)-5-methyloxazol-4-yl]-ethoxy}-phenoxy)-2-methylpropionic acid] | 111% | 1060 nM | 80% | 350 nM | 
Cc1oc(-c2ccc(-c3ccccc3F)cc2)nc1CCOc1ccc(OC(C)(C)C(=O)O)cc1 [Example 13, 2-(4-{2-[2-(2′-Fluorobiphenyl-4-yl)-5-methyloxazol-4-yl]-ethoxy}-phenoxy)-2-methylpropionic acid] | 84% | 928 nM | 100% | 475 nM | 
Cc1oc(-c2ccc(-c3ccc[nH]3)cc2)nc1CCOc1ccc(OC(C)(C)C(=O)O)cc1 [Example 18, 2-Methyl-2-[4-(2-{5-methyl-2-[4-(1H-pyrrol-2-yl)-phenyl]-oxazol-4-yl}-ethoxy)-phenoxy]propionic acid] | 97% | 1790 nM | 145% | 539 nM | 
Cc1oc(-c2ccc(-c3ccccc3)cc2)nc1CCOc1ccc(OC(C)(C)C(=O)O)c(CC2CCCCC2)c1 [Example 25, 2-{4-[2-(2-Biphenyl-4-yl-5-methyloxazol-4-yl)-ethoxy]-2-cyclohexylmethyl-phenoxy}-2-methyl-propionic acid] | 104% | 81 nM | 71% | 125 nM | 
Cc1oc(-c2cccc(-c3ccccc3)c2)nc1CCOc1ccc(OC(C)(C)C(=O)O)c(CC2CCCCC2)c1 [Example 26, 2-{4-[2-(2-Biphenyl-3-yl-5-methyloxazol-4-yl)-ethoxy]-2-cyclohexylmethyl-phenoxy}-2-methyl-propionic acid] | 111% | 33 nM | 73% | 78 nM | 
Cc1oc(-c2ccc(-c3ccccc3)cc2)nc1CCOc1ccc(OC(C)(C)C(=O)O)c(CCc2ccccc2)c1 [Example 28, 2-{4-[2-(2-Biphenyl-4-yl-5-methyloxazol-4-yl)ethoxy]-2-phenethylphenoxy}-2-methylpropionic acid] | 93% | 140 nM | 63% | 172 nM | 
CCCCc1cc(OC(C)(C)C(=O)O)ccc1OCCc1nc(-c2cccc(-c3ccccc3)c2)oc1C [Example 32, 2-{4-[2-(2-Biphenyl-3-yl-5-methyloxazol-4-yl)ethoxy]-3-butylphenoxy}-2-methylpropionic acid] | 91% | 12 nM | 60% | 47 nM | 
Cc1oc(-c2ccc(-c3ccccc3)cc2)nc1CCOc1ccc(OC(C)(C)C(=O)O)cc1CC1CCCCC1 [Example 34, 2-{4-[2-(2-Biphenyl-4-yl-5-methyloxazol-4-yl)ethoxy]-3-cyclohexylmethylphenoxy}-2-methylpropionic acid] | 180% | 227 nM | 55% | 193 nM | 
Cc1oc(-c2cccc(-c3ccccc3)c2)nc1CCOc1ccc(OC(C)(C)C(=O)O)c(Cc2ccccc2)c1 [Example 35, 2-{2-Benzyl-4-[2-(2-biphenyl-3-yl-5-methyloxazol-4-yl)-ethoxy]-phenoxy}-2-methyl-propionic acid] | 90% | 24 nM | 61% | 65 nM | 
Cc1oc(-c2ccc(-c3ccccc3)cc2)nc1CCOc1ccc(OC(C)(C)C(=O)O)c(Cc2ccccc2)c1 [Example 36, 2-{2-Benzyl-4-[2-(2-biphenyl-4-yl-5-methyloxazol-4-yl)-ethoxy]-phenoxy}-2-methyl-propionic acid] | 140% | 62 nM | 92% | 140 nM | 
Cc1oc(-c2ccc(-c3ccccc3)cc2)nc1CCSc1ccc(OC(C)(C)C(=O)O)cc1 [Example 47, 2-{4-[2-(2-Biphenyl-4-yl-5-methyloxazol-4-yl)-ethylsulfanyl]-phenoxy}-2-methyl-propionic acid] | 90% | 1530 nM | 126% | 371 nM | 
CC(C)(Oc1ccc(C(=O)c2ccc(Cl)cc2)cc1)C(=O)O [Fenofibric acid, reference compound] | 16% |  |  |  | 0%
